# According to patent publication US20050176739A1, “Therapeutic agent for eating disorders” (priority 1999, published 2005):
# Experiments:
# dd-strain male mice = assay: Acute toxicity test; format: in vivo, mouse; settings: oral administration, mortality seven days after administration
# Text: Test compounds were orally administered to groups of dd-strain male mice weighing 20±1 g, each group consisting of three mice.
# Crj:CD (SD) rats [1] = assay: Action of increasing feed intake by 4-week oral administration (Test Example 1); format: in vivo, rat
# Experimental: Action of Increasing Feed Intake by 4-Week Oral Administration
# Compound 1 was suspended in a 0.5% aqueous methyl cellulose solution to a final concentration of 0.6 mg/mL for 6 mg/kg dose, 3 mg/mL for 30 mg/kg dose, 16 mg/mL for 160 mg/kg dose, or 80 mg/mL for 800 mg/kg dose, and the resulting solution was used.
# Male and female Crj:CD (SD) rats (SPF) at the age of 5 weeks were purchased from Nippon Charles River Co., Ltd., and were then fed and conditioned for 9 days. During the term, their body weight change and conditions were observed, and animals determined as in healthy conditions were used at the test. At the start of the use, the body weights of the male animals were within a range of 187 to 209 g, while those of the female animals were within a range of 147 to 173 g. During both of the conditioning and feeding term and the test term, the animals were fed with a solid feed for mouse and rat (CRF-1 15 kGy, Oriental Yeast Industry, Co., Ltd.) and with water, ad libitum.
# As to the number of the animals used, 15 each of male and female animals were used for each group. As a negative control group, a group administered a 0.5% aqueous methyl cellulose solution alone was prepared. Based on the body weight at the termination of the conditioning and feeding term, the animals were randomly assigned to individual groups, so that the body weights were uniformly distributed among the resulting individual groups.
# Oral administration was selected as the administration route. The solvent or a test compound-containing solution was administered once daily in the morning for 4 weeks in a dose of 1 mL per 100 g of body weight.
# The feed intake of the test animals was measured on days 7, 14, 21 and 28. The measured values were tested for homoscedasticity by the Bartlett's test. When the variance was homogeneous, one-way layout analysis of variance was performed; in the case that significance was observed, herein, the control group and the individual dosed groups were tested by the Dunnett's test. When the variance was not homogeneous, the Kruskal-Wallis's rank test was performed; in the case that significance was observed among the groups, the Dunnett's test was conducted.
# Crj:CD (SD) rats [2] = assay: Feed intake change by 4-week oral administration (Test Example 2); format: in vivo, rat
# Experimental: (§1) Action of Increasing Feed Intake and Body Weight by 4-Week Oral Administration
# (§2) Compound 1 was suspended in a 0.5% aqueous methyl cellulose solution to a final concentration of 20 mg/mL for 200 mg/kg dose or 40 mg/mL for 400 mg/kg dose, and the resulting solution was used.
# (§3) Male and female Crj:CD (SD) rats (SPF) at the age 5 of weeks were purchased from Nippon Charles River Co., Ltd., and were then fed and conditioned for 7 days. During the term, their body weight change and conditions were observed, and animals determined as in healthy conditions were used at the test. At the start of the use, the body weights of the male animals were within a range of 177.4 to 193.6 g, while those of the female animals were within a range of 141.1 to 160.3 g. During both of the conditioning and feeding term and the test term, the animals were fed with a solid feed for mouse and rat [FR-2, Funabashi Agricultural Farm Co., Ltd.] and with water ad libitum.
# (§4) As to the number of the animals used, 5 each of male and female animals were used for each group. As a negative control group, a group administered a 0.5% aqueous methyl cellulose solution alone was prepared. Based on the body weight at the termination of the conditioning and feeding term, the animals were randomly assigned to individual groups, so that the body weights were uniformly distributed among the resulting individual groups.
# (§5) Oral administration was selected as the administration route. The solvent or the test compound was administered once daily in the morning for 4 weeks in a dose of 1 mL per 100 g of body weight.
# (§6) The body weights and feed intake of the test animals were measured on days 0, 7, 14, 21 and 28. The individual measured values were tested, based on the same standards as in the […].
# [3] = Body weight change by 4-week oral administration (Test Example 2); format: in vivo, rat
# Experimental: as §1, §2, §3, §4, §5, §6
# [4] = 4-week oral administration, male and female rats
# [5] = female rats, 200 mg/kg po once daily, day 0
# [6] = female rats, 200 mg/kg po once daily, day 7
# [7] = female rats, 200 mg/kg po once daily, day 14
# [8] = female rats, 200 mg/kg po once daily, day 21
# [9] = female rats, 200 mg/kg po once daily, day 28
# [10] = female rats, 400 mg/kg po once daily, day 0
# [11] = female rats, 400 mg/kg po once daily, day 7
# [12] = female rats, 400 mg/kg po once daily, day 14
# [13] = female rats, 400 mg/kg po once daily, day 21
# [14] = female rats, 400 mg/kg po once daily, day 28
# [15] = male rats, 200 mg/kg po once daily, day 0
# [16] = male rats, 200 mg/kg po once daily, day 7
# [17] = male rats, 200 mg/kg po once daily, day 14
# [18] = male rats, 200 mg/kg po once daily, day 21
# [19] = male rats, 200 mg/kg po once daily, day 28
# [20] = male rats, 400 mg/kg po once daily, day 0
# [21] = male rats, 400 mg/kg po once daily, day 7
# [22] = male rats, 400 mg/kg po once daily, day 14
# [23] = male rats, 400 mg/kg po once daily, day 21
# [24] = male rats, 400 mg/kg po once daily, day 28
structure (smiles),measurement,setting,value
"CCn1c(=O)c2c(nc(/C=C/c3ccc(OC)c(OC)c3)n2C)n(CC)c1=O [Compound 1, (E)-8-(3,4-dimethoxystyryl)-1,3-diethyl-7-methylxanthine]",minimum lethal dose (MLD),dd-strain male mice,greater than 1000 mg/kg
same,effect on feed intake (in words),Crj:CD (SD) rats [1]; [4],increased the feed intake both in the males and in the females
same,Feed intake (g ± SD),"Crj:CD (SD) rats [1]; female rats, 6 mg/kg po once daily, day 7",15.93 ± 1.09 g
same,Feed intake (g ± SD),"Crj:CD (SD) rats [1]; female rats, 6 mg/kg po once daily, day 14",18.03 ± 1.37 g
same,Feed intake (g ± SD),"Crj:CD (SD) rats [1]; female rats, 6 mg/kg po once daily, day 21",18.76 ± 1.18 g
same,Feed intake (g ± SD),"Crj:CD (SD) rats [1]; female rats, 6 mg/kg po once daily, day 28",18.80 ± 1.46 g
same,Feed intake (g ± SD),"Crj:CD (SD) rats [1]; female rats, 30 mg/kg po once daily, day 7",17.24 ± 1.19 g
same,Feed intake (g ± SD),"Crj:CD (SD) rats [1]; female rats, 30 mg/kg po once daily, day 14",19.38 ± 1.74 g
same,Feed intake (g ± SD),"Crj:CD (SD) rats [1]; female rats, 30 mg/kg po once daily, day 21",19.93 ± 2.08 g
same,Feed intake (g ± SD),"Crj:CD (SD) rats [1]; female rats, 30 mg/kg po once daily, day 28",20.50 ± 1.96 g
same,Feed intake (g ± SD),"Crj:CD (SD) rats [1]; female rats, 160 mg/kg po once daily, day 7",17.73 ± 1.40 g
same,Feed intake (g ± SD),"Crj:CD (SD) rats [1]; female rats, 160 mg/kg po once daily, day 14",19.56 ± 1.68 g
same,Feed intake (g ± SD),"Crj:CD (SD) rats [1]; female rats, 160 mg/kg po once daily, day 21",20.56 ± 1.73 g
same,Feed intake (g ± SD),"Crj:CD (SD) rats [1]; female rats, 160 mg/kg po once daily, day 28",20.87 ± 2.04 g
same,Feed intake (g ± SD),"Crj:CD (SD) rats [1]; female rats, 800 mg/kg po once daily, day 7",17.30 ± 0.99 g
same,Feed intake (g ± SD),"Crj:CD (SD) rats [1]; female rats, 800 mg/kg po once daily, day 14",19.19 ± 1.44 g
same,Feed intake (g ± SD),"Crj:CD (SD) rats [1]; female rats, 800 mg/kg po once daily, day 21",20.43 ± 1.69 g
same,Feed intake (g ± SD),"Crj:CD (SD) rats [1]; female rats, 800 mg/kg po once daily, day 28",21.13 ± 1.76 g
same,Feed intake (g ± SD),"Crj:CD (SD) rats [1]; male rats, 6 mg/kg po once daily, day 7",21.45 ± 1.28 g
same,Feed intake (g ± SD),"Crj:CD (SD) rats [1]; male rats, 6 mg/kg po once daily, day 14",23.97 ± 1.21 g
same,Feed intake (g ± SD),"Crj:CD (SD) rats [1]; male rats, 6 mg/kg po once daily, day 21",24.96 ± 1.58 g
same,Feed intake (g ± SD),"Crj:CD (SD) rats [1]; male rats, 6 mg/kg po once daily, day 28",25.23 ± 1.80 g
same,Feed intake (g ± SD),"Crj:CD (SD) rats [1]; male rats, 30 mg/kg po once daily, day 7",23.54 ± 2.15 g
same,Feed intake (g ± SD),"Crj:CD (SD) rats [1]; male rats, 30 mg/kg po once daily, day 14",26.12 ± 2.03 g
same,Feed intake (g ± SD),"Crj:CD (SD) rats [1]; male rats, 30 mg/kg po once daily, day 21",27.03 ± 2.07 g
same,Feed intake (g ± SD),"Crj:CD (SD) rats [1]; male rats, 30 mg/kg po once daily, day 28",27.37 ± 2.56 g
same,Feed intake (g ± SD),"Crj:CD (SD) rats [1]; male rats, 160 mg/kg po once daily, day 7",23.94 ± 1.58 g
same,Feed intake (g ± SD),"Crj:CD (SD) rats [1]; male rats, 160 mg/kg po once daily, day 14",26.20 ± 1.77 g
same,Feed intake (g ± SD),"Crj:CD (SD) rats [1]; male rats, 160 mg/kg po once daily, day 21",27.31 ± 1.74 g
same,Feed intake (g ± SD),"Crj:CD (SD) rats [1]; male rats, 160 mg/kg po once daily, day 28",27.81 ± 2.47 g
same,Feed intake (g ± SD),"Crj:CD (SD) rats [1]; male rats, 800 mg/kg po once daily, day 7",22.84 ± 1.81 g
same,Feed intake (g ± SD),"Crj:CD (SD) rats [1]; male rats, 800 mg/kg po once daily, day 14",25.40 ± 2.42 g
same,Feed intake (g ± SD),"Crj:CD (SD) rats [1]; male rats, 800 mg/kg po once daily, day 21",26.67 ± 2.19 g
same,Feed intake (g ± SD),"Crj:CD (SD) rats [1]; male rats, 800 mg/kg po once daily, day 28",27.03 ± 2.37 g
same,effect on feed intake (in words),Crj:CD (SD) rats [2]; [4],increased the feed intake
same,Feed intake (g ± SD),Crj:CD (SD) rats [2]; [5],13.4 ± 1.7 g
same,Feed intake (g ± SD),Crj:CD (SD) rats [2]; [6],20.2 ± 1.7 g
same,Feed intake (g ± SD),Crj:CD (SD) rats [2]; [7],21.8 ± 1.7 g
same,Feed intake (g ± SD),Crj:CD (SD) rats [2]; [8],20.9 ± 2.6 g
same,Feed intake (g ± SD),Crj:CD (SD) rats [2]; [9],23.8 ± 3.0 g
same,Feed intake (g ± SD),Crj:CD (SD) rats [2]; [10],14.6 ± 1.7 g
same,Feed intake (g ± SD),Crj:CD (SD) rats [2]; [11],19.5 ± 2.2 g
same,Feed intake (g ± SD),Crj:CD (SD) rats [2]; [12],21.1 ± 2.9 g
same,Feed intake (g ± SD),Crj:CD (SD) rats [2]; [13],22.0 ± 2.6 g
same,Feed intake (g ± SD),Crj:CD (SD) rats [2]; [14],24.5 ± 2.5 g
same,Feed intake (g ± SD),Crj:CD (SD) rats [2]; [15],20.1 ± 1.0 g
same,Feed intake (g ± SD),Crj:CD (SD) rats [2]; [16],28.4 ± 1.5 g
same,Feed intake (g ± SD),Crj:CD (SD) rats [2]; [17],29.9 ± 1.6 g
same,Feed intake (g ± SD),Crj:CD (SD) rats [2]; [18],30.2 ± 3.5 g
same,Feed intake (g ± SD),Crj:CD (SD) rats [2]; [19],31.0 ± 1.1 g
same,Feed intake (g ± SD),Crj:CD (SD) rats [2]; [20],20.7 ± 1.2 g
same,Feed intake (g ± SD),Crj:CD (SD) rats [2]; [21],27.9 ± 2.5 g
same,Feed intake (g ± SD),Crj:CD (SD) rats [2]; [22],30.2 ± 3.8 g
same,Feed intake (g ± SD),Crj:CD (SD) rats [2]; [23],30.3 ± 3.9 g
same,Feed intake (g ± SD),Crj:CD (SD) rats [2]; [24],34.8 ± 4.4 g
same,effect on body weight (in words),[3]; [4],increased the feed intake and body weight
same,Body weight (g ± SD),[3]; [5],151.0 ± 5.7 g
same,Body weight (g ± SD),[3]; [6],178.6 ± 7.6 g
same,Body weight (g ± SD),[3]; [7],206.0 ± 7.1 g
same,Body weight (g ± SD),[3]; [8],232.5 ± 13.4 g
same,Body weight (g ± SD),[3]; [9],255.7 ± 17.3 g
same,Body weight (g ± SD),[3]; [10],152.9 ± 4.5 g
same,Body weight (g ± SD),[3]; [11],178.1 ± 3.3 g
same,Body weight (g ± SD),[3]; [12],207.8 ± 11.5 g
same,Body weight (g ± SD),[3]; [13],236.5 ± 16.3 g
same,Body weight (g ± SD),[3]; [14],259.3 ± 14.3 g
same,Body weight (g ± SD),[3]; [15],191.2 ± 2.4 g
same,Body weight (g ± SD),[3]; [16],247.3 ± 4.8 g
same,Body weight (g ± SD),[3]; [17],313.5 ± 12.1 g
same,Body weight (g ± SD),[3]; [18],371.5 ± 23.9 g
same,Body weight (g ± SD),[3]; [19],419.2 ± 28.0 g
same,Body weight (g ± SD),[3]; [20],189.5 ± 4.4 g
same,Body weight (g ± SD),[3]; [21],242.5 ± 10.7 g
same,Body weight (g ± SD),[3]; [22],304.8 ± 15.7 g
same,Body weight (g ± SD),[3]; [23],361.9 ± 23.8 g
same,Body weight (g ± SD),[3]; [24],415.6 ± 29.2 g
"CCn1c(=O)c2c(nc(/C=C/c3cc(OC)c4c(c3)OCO4)n2C)n(CC)c1=O [Compound 3, (E)-1,3-diethyl-8-(3-methoxy-4,5-methylenedioxystyryl)-7-methylxanthine]",melting point,,201.5 to 202.3 °C
